The values below come from patent US10920230B2, “Methylotrophs for aquaculture and animal feed” (KnipBio, Inc., priority 2013, dated 2021).

Values after ≈ are worked out from the molar mass of the structure shown.

The subject of one experiment is PR/cmtO promoter. The experiment can be described thus: Fluorescence-based mCherry expression assay, pJP18T. In kind it is cell-based, M. extorquens. The source says:
(§1) A desirable property for regulated expression systems is for levels of gene expression from the promoter to be proportional to the concentration of inducer. In order to explore the range of induction of PR/cmtO and PR/tetO, the promoters along with their respective regulatory proteins were introduced onto broad-host-range plasmids (IncP compatibility group) to create the expression vectors pLC290 and pLC291 (FIG. 8 in U.S. Ser. No. 61/863,701). […] We placed the red-fluorescent protein variant mCherry under the control of each promoter in pLC290 and pLC291 and introduced the resulting vectors (pJP18T and pJP22T) into M. extorquens. To induce expression from PR/cmtO and PR/tetO, we supplied varied concentrations of cumate (Q) and anhydrotetracycline (aTc), respectively, to M. extorquens cultures.
(§2) Assays to measure levels of mCherry protein expression were performed as follows. For dose-dependent response curves, M. extorquens strains harboring pJP18T or pJP22T were grown to saturation in 10 mL of Hypho-succinate medium. […] Cultures were allowed to continue growth for an additional 24 hours prior to fluorescence (excitation 587 nm/emission 610 nm) and optical density (600 nm) measurements made using a Tecan Safire2 plate reader. Relative fluorescence values reported are: Relative fluorescence (A.U.)=RFU/OD600*10^−3.

Experiment [1] has as its system cumate inducible PmxaF promoter. In words: Fluorescence-based mCherry expression assay, pHC115m. Conditions: uninduced 15.6±1.5. In kind it is cell-based, M. extorquens. How it is done:
Assays to measure levels of mCherry protein expression were performed as follows. For dose-dependent response curves, M. extorquens strains harboring pJP18T or pJP22T were grown to saturation in 10 mL of Hypho-succinate medium. These cultures were then diluted 1:200 in fresh medium, followed by 630 μL aliquots being dispensed to clear, flat-bottom, 48-well microtiter plates (Costar). Cultures were grown for 4 hours on a plate shaking tower (Caliper) at 150 rpm in a 30° C. humidified room. After 4 hours of growth, 10 μl of fresh medium containing Q or aTc was added to supply Q and aTc at desired concentrations. Cultures were allowed to continue growth for an additional 24 hours prior to fluorescence (excitation 587 nm/emission 610 nm) and optical density (600 nm) measurements made using a Tecan Safire2 plate reader. Relative fluorescence values reported are: Relative fluorescence (A.U.)=RFU/OD600*10^−3.

The subject of another experiment is PR/tetO promoter. In words: Fluorescence-based mCherry expression assay, pJP22T. In kind it is cell-based, M. extorquens.
Text: as §1, §2

The subject of experiment [2] is wild-type B. fungorum LB400. In words: microbe, parasite or virus in culture. Conditions: Paraburkholderia fungorum. The protocol: The minimal inhibitory concentration (MIC) of formaldehyde was determined by comparing the rate and extent of colony formation of wild-type B. fungorum LB400 to that of the flhA mutants CM363K.1 and CM363.1 on solid medium containing succinate as a growth substrate with various concentrations of formaldehyde. Formaldehyde was added to the plates immediately prior to the addition of the molten agar.

As to `CC(C)c1ccc(C(=O)O)cc1` [Q, p-isopropyl benzoate], the “induction (regulatory range)” value in the experiment with PR/cmtO promoter (induced versus uninduced) was determined as 10 fold. Also, in experiment [1], the “relative fluorescence, induced” value is 157.1±3.7 A.U. Moreover, the “relative fluorescence (crosstalk)” value with PR/tetO promoter (pJP22T with the non-cognate inducer, grown in succinate, uninduced 1.0) was determined as 1.1 A.U.

Turning to `Cc1c2c(c(O)c3c(O)cccc13)C(=O)[C@]1(O)C(=O)C(C(N)=O)=C(O)[C@@H](N(C)C)[C@@H]1C2` [aTc, anhydrotetracycline], in the experiment on PR/cmtO promoter (pJP18T with the non-cognate inducer, grown in succinate, uninduced 4.6), the “relative fluorescence (crosstalk)” value worked out at 4.2 A.U. The “induction (regulatory range)” value in the experiment with PR/tetO promoter (induced versus uninduced) is recorded as 30 fold.

`C=O` [formaldehyde] yielded an MIC in experiment [2] of 200 µM (≈ 6.01 µg/mL).
